Assay results: US20240165244A1 (Prelude Therapeutics Incorporated, priority 2022, published 2024)

Legend:
SMARCA2 = biological target: T1, SMARCA2 (Homo sapiens, UniProt P51531); experiment: SMARCA2 HiBiT degradation assay in HeLa cells; type: cell-based; settings: 18 hours, highest concentration 10 μM
T1 construct: SMARCA2-HiBiT knock-in Hela monoclonal cell (CS302366); host or cells: HeLa monoclonal cells with heterozygous HiBiT knock-in at the endogenous SMARCA2 locus
Procedure, shortened: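 HeLa cells carrying a heterozygous C-terminal HiBiT knock-in on SMARCA2 were seeded at 2500 cells/well. They were treated with 3-fold dilution series, top concentration 10 μM, for 18 h at 37 °C. Remaining SMARCA2-HiBiT was measured by Nano-Glo HiBiT lytic luminescence after 30-60 min at RT, followed by curve fitting.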

SMARCA4 = biological target: T2, SMARCA4 (Homo sapiens, UniProt P51532); experiment: SMARCA4 HiBiT degradation assay in HeLa cells; type: cell-based; settings: 18 hours, highest concentration 10 μM
T2 construct: SMARCA4-HiBiT knock-in Hela monoclonal cell (CS3023226); host or cells: HeLa monoclonal cells with heterozygous HiBiT knock-in at the endogenous SMARCA4 locus
T2 sequence (P51532 whole entry): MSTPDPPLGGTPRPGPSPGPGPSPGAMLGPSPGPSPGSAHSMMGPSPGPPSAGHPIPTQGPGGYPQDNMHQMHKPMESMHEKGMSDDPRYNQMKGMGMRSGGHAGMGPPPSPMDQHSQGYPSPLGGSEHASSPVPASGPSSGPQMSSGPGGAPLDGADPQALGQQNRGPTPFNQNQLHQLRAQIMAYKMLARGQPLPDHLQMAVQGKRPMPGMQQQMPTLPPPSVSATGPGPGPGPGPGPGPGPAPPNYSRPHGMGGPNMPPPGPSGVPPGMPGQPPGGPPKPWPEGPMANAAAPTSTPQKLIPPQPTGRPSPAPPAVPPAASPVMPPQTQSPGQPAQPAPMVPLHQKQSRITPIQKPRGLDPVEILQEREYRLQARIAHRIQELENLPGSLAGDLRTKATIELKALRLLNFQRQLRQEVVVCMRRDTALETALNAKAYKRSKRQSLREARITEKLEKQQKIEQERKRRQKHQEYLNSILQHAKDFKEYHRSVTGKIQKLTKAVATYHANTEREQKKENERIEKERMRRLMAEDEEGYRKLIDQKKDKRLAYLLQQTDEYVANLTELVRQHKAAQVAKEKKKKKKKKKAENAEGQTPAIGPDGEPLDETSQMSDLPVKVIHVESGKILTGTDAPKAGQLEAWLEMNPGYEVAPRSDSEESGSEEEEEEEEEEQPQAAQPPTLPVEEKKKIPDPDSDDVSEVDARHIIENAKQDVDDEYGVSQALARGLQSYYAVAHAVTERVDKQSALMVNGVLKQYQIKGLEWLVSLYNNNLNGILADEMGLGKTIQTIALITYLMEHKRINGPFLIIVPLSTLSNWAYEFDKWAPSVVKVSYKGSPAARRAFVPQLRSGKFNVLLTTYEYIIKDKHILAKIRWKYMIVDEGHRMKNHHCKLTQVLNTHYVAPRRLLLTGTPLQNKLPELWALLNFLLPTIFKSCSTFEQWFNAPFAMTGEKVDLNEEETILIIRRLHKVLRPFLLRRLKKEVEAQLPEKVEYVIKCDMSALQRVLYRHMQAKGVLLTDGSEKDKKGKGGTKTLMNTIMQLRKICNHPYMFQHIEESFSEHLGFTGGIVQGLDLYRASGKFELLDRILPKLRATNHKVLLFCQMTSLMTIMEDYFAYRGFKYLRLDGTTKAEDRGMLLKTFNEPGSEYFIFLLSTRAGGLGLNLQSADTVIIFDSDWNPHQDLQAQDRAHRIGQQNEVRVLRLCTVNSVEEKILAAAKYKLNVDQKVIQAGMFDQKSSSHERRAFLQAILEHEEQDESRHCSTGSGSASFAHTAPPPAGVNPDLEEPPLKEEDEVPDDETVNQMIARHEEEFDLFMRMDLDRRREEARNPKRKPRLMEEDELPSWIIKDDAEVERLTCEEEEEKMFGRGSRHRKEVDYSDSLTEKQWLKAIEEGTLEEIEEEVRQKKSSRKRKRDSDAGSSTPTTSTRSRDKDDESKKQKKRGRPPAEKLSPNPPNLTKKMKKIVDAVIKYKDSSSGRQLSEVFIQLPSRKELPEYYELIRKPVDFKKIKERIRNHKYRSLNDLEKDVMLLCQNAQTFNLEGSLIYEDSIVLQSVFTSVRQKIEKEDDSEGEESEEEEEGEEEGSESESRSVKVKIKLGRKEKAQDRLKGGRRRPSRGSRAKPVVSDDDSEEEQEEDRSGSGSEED
Procedure, shortened: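 HeLa monoclonal cells with HiBiT knocked into SMARCA4 were seeded at 2500 cells/well, dosed with compound and incubated 18 hours at 37° C. HiBiT signal reported remaining SMARCA4 protein, and values came from curve fitting.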

T1 sequence (P51531 whole entry): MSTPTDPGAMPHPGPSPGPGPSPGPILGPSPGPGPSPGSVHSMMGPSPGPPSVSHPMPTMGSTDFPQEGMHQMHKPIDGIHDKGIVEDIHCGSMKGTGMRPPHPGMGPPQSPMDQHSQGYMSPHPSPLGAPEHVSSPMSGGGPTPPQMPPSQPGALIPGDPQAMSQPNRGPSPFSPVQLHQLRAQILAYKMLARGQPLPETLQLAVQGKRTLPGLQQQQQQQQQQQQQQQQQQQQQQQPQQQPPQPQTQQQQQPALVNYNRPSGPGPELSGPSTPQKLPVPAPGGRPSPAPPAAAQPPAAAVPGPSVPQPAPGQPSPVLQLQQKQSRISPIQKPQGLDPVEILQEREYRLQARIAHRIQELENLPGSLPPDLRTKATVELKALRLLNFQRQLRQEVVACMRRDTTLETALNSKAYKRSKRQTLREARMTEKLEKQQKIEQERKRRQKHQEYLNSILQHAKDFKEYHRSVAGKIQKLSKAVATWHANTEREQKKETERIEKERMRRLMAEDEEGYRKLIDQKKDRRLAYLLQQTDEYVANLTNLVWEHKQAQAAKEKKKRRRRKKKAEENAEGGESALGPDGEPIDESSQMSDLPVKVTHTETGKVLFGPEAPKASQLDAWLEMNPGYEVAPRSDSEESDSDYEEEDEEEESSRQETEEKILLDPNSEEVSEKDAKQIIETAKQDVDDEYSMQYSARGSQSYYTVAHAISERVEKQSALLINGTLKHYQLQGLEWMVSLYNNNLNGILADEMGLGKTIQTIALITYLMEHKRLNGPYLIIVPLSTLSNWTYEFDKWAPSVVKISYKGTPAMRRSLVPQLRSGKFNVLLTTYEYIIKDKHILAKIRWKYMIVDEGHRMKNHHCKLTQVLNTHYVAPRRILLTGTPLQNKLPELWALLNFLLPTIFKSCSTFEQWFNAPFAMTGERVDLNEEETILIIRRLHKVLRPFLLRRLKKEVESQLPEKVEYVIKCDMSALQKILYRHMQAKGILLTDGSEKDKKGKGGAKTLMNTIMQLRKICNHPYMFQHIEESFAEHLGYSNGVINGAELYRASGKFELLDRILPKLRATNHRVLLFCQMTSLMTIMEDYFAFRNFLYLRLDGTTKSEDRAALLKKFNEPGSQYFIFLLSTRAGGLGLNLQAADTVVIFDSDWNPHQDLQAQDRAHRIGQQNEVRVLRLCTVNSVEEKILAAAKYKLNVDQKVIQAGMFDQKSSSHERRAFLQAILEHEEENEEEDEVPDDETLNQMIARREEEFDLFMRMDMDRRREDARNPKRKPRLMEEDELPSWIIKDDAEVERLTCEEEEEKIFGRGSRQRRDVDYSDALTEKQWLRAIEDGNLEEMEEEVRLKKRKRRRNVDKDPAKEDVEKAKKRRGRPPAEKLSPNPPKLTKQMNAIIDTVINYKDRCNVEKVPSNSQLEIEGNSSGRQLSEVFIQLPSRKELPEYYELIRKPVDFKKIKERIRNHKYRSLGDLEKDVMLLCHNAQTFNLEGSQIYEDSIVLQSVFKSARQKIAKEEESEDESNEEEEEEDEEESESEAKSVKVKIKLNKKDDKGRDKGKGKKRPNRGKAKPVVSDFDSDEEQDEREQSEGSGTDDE

Structure (SMILES) | DC50 (SMARCA2) [nM] | Dmax (SMARCA2) [%] | DC50 (SMARCA4) [nM] | Dmax (SMARCA4) [%]
Cc1nc(O[C@H]2CN3c4cc(-c5cccc(F)c5O)nnc4NC[C@]3(C(F)F)C2)cnc1CN1CCN(c2ccc3c(c2)C(=O)N(C2CCC(=O)NC2=O)C3)CC1 (stereo partly drawn) [Example 51, 3-(6-(4-((5-(((6aS,8R)-6a-(difluoromethyl)-2-(3-fluoro-2-hydroxyphenyl)-5,6,6a,7,8,9-hexahydropyrrolo[1′,2′:4,5]pyrazino[2,3-c]pyridazin-8-yl)oxy)-3-methylpyrazin-2-yl)methyl)piperazin-1-yl)-1-oxoisoindolin-2-yl)piperidine-2,6-dione] | < 100 | > 75 | > 1000 | < 50
O=C1CCC(N2Cc3ccc(N4CCN(Cc5ccc(O[C@@H]6C[C@@H]7CNc8nnc(-c9cc(F)cc(F)c9O)cc8N7C6)cc5C(F)(F)F)CC4)cc3C2=O)C(=O)N1 (stereo partly drawn) [Example 15, 3-(6-(4-(4-(((6aR,8R)-2-(3,5-difluoro-2-hydroxyphenyl)-5,6,6a,7,8,9-hexahydropyrrolo[1′,2′:4,5]pyrazino[2,3-c]pyridazin-8-yl)oxy)-2-(trifluoromethyl)benzyl)piperazin-1-yl)-1-oxoisoindolin-2-yl)piperidine-2,6-dione] | < 100 | > 75 | > 1000 | 50 to 75
O=C1CC[C@H](N2Cc3ccc(N4CCN(Cc5ccc(O[C@H]6CN7c8cc(-c9cccc(F)c9O)nnc8NC[C@@]7(C(F)F)C6)nc5)CC4)cc3C2=O)C(=O)N1 [Example 43, (S)-3-(6-(4-((6-(((6aR,8R)-6a-(difluoromethyl)-2-(3-fluoro-2-hydroxyphenyl)-5,6,6a,7,8,9-hexahydropyrrolo[1′,2′:4,5]pyrazino[2,3-c]pyridazin-8-yl)oxy)pyridin-3-yl)methyl)piperazin-1-yl)-1-oxoisoindolin-2-yl)piperidine-2,6-dione] | < 100 | > 75 | > 1000 | < 50
C[C@@H]1CN(CC2CCN(c3ccc4c(c3)C(=O)N(C3CCC(=O)NC3=O)C4)CC2)C[C@H](C)N1C(=O)[C@@H]1C[C@@H]2CNc3nnc(-c4cccc(F)c4O)cc3N2C1 (stereo partly drawn) [Example 34, 3-(6-(4-(((3R,5S)-4-((6aR,8R)-2-(3-fluoro-2-hydroxyphenyl)-5,6,6a,7,8,9-hexahydropyrrolo[1′,2′:4,5]pyrazino[2,3-c]pyridazine-8-carbonyl)-3,5-dimethylpiperazin-1-yl)methyl)piperidin-1-yl)-1-oxoisoindolin-2-yl)piperidine-2,6-dione] | < 100 | 50 to 75 | > 1000 | < 50
Cc1cc(O[C@H]2CN3c4cc(-c5cccc(F)c5O)nnc4NC[C@@]3(C)C2)cnc1CN1CCN(c2ccc3c(c2)C(=O)N([C@H]2CCC(=O)NC2=O)C3)CC1 [Example 81, (S)-3-(6-(4-((5-(((6aR,8R)-2-(3-fluoro-2-hydroxyphenyl)-6a-methyl-5,6,6a,7,8,9-hexahydropyrrolo[1′,2′:4,5]pyrazino[2,3-c]pyridazin-8-yl)oxy)-3-methylpyridin-2-yl)methyl)piperazin-1-yl)-1-oxoisoindolin-2-yl)piperidine-2,6-dione] | < 100 | > 75 | 100 to 1000 | < 50
O=C1CC[C@H](N2Cc3ccc(N4CCN(Cc5ccc(O[C@@H]6C[C@@H]7CNc8nnc(-c9cccc(Cl)c9O)cc8N7C6)cc5)CC4)cc3C2=O)C(=O)N1 [Example 25, (S)-3-(6-(4-(4-(((6aR,8R)-2-(3-chloro-2-hydroxyphenyl)-5,6,6a,7,8,9-hexahydropyrrolo[1′,2′:4,5]pyrazino[2,3-c]pyridazin-8-yl)oxy)benzyl)piperazin-1-yl)-1-oxoisoindolin-2-yl)piperidine-2,6-dione] | < 100 | > 75 | < 100 | > 75
CC[C@@]12CNc3nnc(-c4cccc(C)c4O)cc3N1C[C@H](Oc1cnc(CN3CCC(c4ccc5c(c4)C(=O)N([C@H]4CCC(=O)NC4=O)C5)CC3)c(C)c1C)C2 [Example 95, (S)-3-(6-(1-((5-(((6aR,8R)-6a-ethyl-2-(2-hydroxy-3-methylphenyl)-5,6,6a,7,8,9-hexahydropyrrolo[1′,2′:4,5]pyrazino[2,3-c]pyridazin-8-yl)oxy)-3,4-dimethylpyridin-2-yl)methyl)piperidin-4-yl)-1-oxoisoindolin-2-yl)piperidine-2,6-dion] | < 100 | > 75 | > 1000 | < 50
Cc1nc(O[C@H]2CN3c4cc(-c5cccc(F)c5O)nnc4NC[C@]3(C(F)F)C2)nc(C)c1CN1CCN(c2ccc3c(c2)C(=O)N(C2CCC(=O)NC2=O)C3)CC1 (stereo partly drawn) [Example 41, 3-(6-(4-((2-(((6aS,8R)-6a-(Difluoromethyl)-2-(3-fluoro-2-hydroxy-phenyl)-5,6,6a,7,8,9-hexahydropyrrolo [1′,2′:4,5]pyrazino[2,3-c]pyridazin-8-yl)oxy)-4,6-dimethylpyrimidin-5-yl)methyl)piperazin-1-yl)-1-oxoisoindolin-2-yl)piperidine-2,6-dione] | < 100 | > 75 | 100 to 1000 | < 50
O=C1CCC(N2Cc3ccc(C4CCN(Cc5cnc(O[C@H]6CN7c8cc(-c9cccc(F)c9O)nnc8NC[C@@]7(C(F)F)C6)c(F)c5)CC4)cc3C2=O)C(=O)N1 (stereo partly drawn) [Example 88, 3-(6-(1-((6-(((6aR,8R)-6a-(difluoromethyl)-2-(3-fluoro-2-hydroxyphenyl)-5,6,6a,7,8,9-hexahydropyrrolo[1′,2′:4,5]pyrazino[2,3-c]pyridazin-8-yl)oxy)-5-fluoropyridin-3-yl)methyl)piperidin-4-yl)-1-oxoisoindolin-2-yl)piperidine-2,6-dione] | < 100 | > 75 | 100 to 1000 | < 50
Cc1nc(CN2CCN(c3ccc4c(c3)C(=O)N(C3CCC(=O)NC3=O)C4)CC2)cnc1O[C@H]1CN2c3cc(-c4cccc(F)c4O)nnc3NC[C@]2(C(F)F)C1 (stereo partly drawn) [Example 40, 3-(6-(4-((5-(((6aS,8R)-6a-(difluoromethyl)-2-(3-fluoro-2-hydroxyphenyl)-5,6,6a,7,8,9-hexahydropyrrolo[1′,2′:4,5]pyrazino[2,3-c]pyridazin-8-yl)oxy)-6-methylpyrazin-2-yl)methyl)piperazin-1-yl)-1-oxoisoindolin-2-yl)piperidine-2,6-dione] | < 100 | > 75 | 100 to 1000 | < 50
O=C1CCC(N2Cc3ccc(N4CCN(Cc5ccc(O[C@@H]6C[C@@H]7CNc8nnc(-c9cccc(Cl)c9O)cc8N7C6)cc5)CC4)cc3C2=O)C(=O)N1 (stereo partly drawn) [Example 8, 3-(6-(4-(4-(((6aR,8R)-2-(3-chloro-2-hydroxyphenyl)-5,6,6a,7,8,9-hexahydropyrrolo[1′,2′:4,5]pyrazino[2,3-c]pyridazin-8-yl)oxy)benzyl)piperazin-1-yl)-1-oxoisoindolin-2-yl)piperidine-2,6-dione] | < 100 | > 75 | < 100 | > 75
O=C1CCC(N2Cc3ccc(N4CCN(Cc5ccc(O[C@@H]6C[C@@H]7CNc8nnc(-c9cc(F)cc(F)c9O)cc8N7C6)cn5)CC4)cc3C2=O)C(=O)N1 (stereo partly drawn) [Example 3, 3-(6-(4-((5-(((6aR,8R)-2-(3,5-difluoro-2-hydroxyphenyl)-5,6,6a,7,8,9-hexahydropyrrolo[1′,2′:4,5]pyrazino[2,3-c]pyridazin-8-yl)oxy)pyridin-2-yl)methyl)piperazin-1-yl)-1-oxoisoindolin-2-yl)piperidine-2,6-dione] | < 100 | > 75 | < 100 | 50 to 75
CC[C@@]12CNc3nnc(-c4cccc(F)c4O)cc3N1C[C@H](Oc1cc(C)c(CN3CCN(c4ccc5c(c4)C(=O)N(C4CCC(=O)NC4=O)C5)CC3)c(C)n1)C2 (stereo partly drawn) [Example 62, 3-(6-(4-((6-(((6aR,8R)-6a-ethyl-2-(3-fluoro-2-hydroxyphenyl)-5,6,6a,7,8,9-hexahydropyrrolo[1′,2′:4,5]pyrazino[2,3-c]pyridazin-8-yl)oxy)-2,4-dimethylpyridin-3-yl)methyl)piperazin-1-yl)-1-oxoisoindolin-2-yl)piperidine-2,6-dione] | < 100 | > 75 | 100 to 1000 | < 50
CN(c1ccc(CN2CCN(c3ccc4c(c3)C(=O)N(C3CCC(=O)NC3=O)C4)CC2)cn1)[C@@H]1C[C@@H]2CNc3nnc(-c4cccc(F)c4O)cc3N2C1 (stereo partly drawn) [Example 35, 3-(6-(4-((6-(((6aR,8R)-2-(3-fluoro-2-hydroxyphenyl)-5,6,6a,7,8,9-hexahydro-pyrrolo[1′,2′:4,5]pyrazino[2,3-c]pyridazin-8-yl)(methyl)amino)pyridin-3-yl)methyl)piperazin-1-yl)-1-oxoisoindolin-2-yl)piperidine-2,6-dione] | > 1000 | 50 to 75 | > 1000 | < 50
CC[C@]12CNc3nnc(-c4cccc(C)c4O)cc3N1C[C@H](Oc1cc(C)c(CN3CCC(c4ccc5c(c4)C(=O)N([C@H]4CCC(=O)NC4=O)C5)CC3)cn1)C2 [Example 98, (S)-3-(6-(1-((6-(((6aS,8R)-6a-ethyl-2-(2-hydroxy-3-methylphenyl)-5,6,6a, 7,8,9-hexahydropyrrolo[1′,2′:4,5]pyrazino[2,3-c]pyridazin-8-yl)oxy)-4-methylpyridin-3-yl)methyl)piperidin-4-yl)-1-oxoisoindolin-2-yl)piperidine-2,6-dione] | < 100 | > 75 | < 100 | > 75
